Counter-ions that a name gives are not always drawn.
Target: T1, human isoform of the Kv1.5 channels (Homo sapiens, UniProt P22460)
T1 construct: expressed in transfected cells; host or cells: HEK293
Experiment: FLIPR thallium ion measurement on potassium channel Kv1.5
Assay type: cell-based
Details: HEK293 cells stably transfected with hKv1.5; compound 10 μM, 15 min at 37° C.; fluorescence normalised with 10 μM DPO
Procedure: The pharmacological evaluation of the compounds on potassium channel Kv1.5 was undertaken using a 96-well plate and FLIPR technology by thallium ion measurement. The HEK293 cells, transfected in a stable manner with the human isoform of the Kv1.5 channels, are seeded 24 h before the experiment in 96-well plates ([…], 200 μl/well) with polylysine applied in the following culture medium: DMEM, 10% SVF, Penicillin/Streptomycin, G418 as the selection antibiotic.
The FLIPR experiment is undertaken using “FLIPR Potassium Ion Channel Assay Kit”, as indicated by the manufacturer (Molecular Devices).
Briefly, the culture medium is replaced by the solution containing the thallium marker for 90 min at 37° C. On conclusion of this step the compounds for testing are added to a final concentration of 10 μM in the well for 15 min at 37° C. The basic fluorescence is then read for 60 sec. The addition of depolarising medium (20 mM of potassium and 3 mM of final thallium) opens the potassium channels and causes an increase of the fluorescence of the thallium fluorophore corresponding to an influx of thallium ions through the hKv1.5 channels. The measurement is made 30 sec after the injection of the depolarising solution. The application of 10 μM DPO (Tocris, blocker of the Kv1.5 channels) enables the fluorescence to be normalised.

T1 sequence (P22460 whole entry, canonical isoform): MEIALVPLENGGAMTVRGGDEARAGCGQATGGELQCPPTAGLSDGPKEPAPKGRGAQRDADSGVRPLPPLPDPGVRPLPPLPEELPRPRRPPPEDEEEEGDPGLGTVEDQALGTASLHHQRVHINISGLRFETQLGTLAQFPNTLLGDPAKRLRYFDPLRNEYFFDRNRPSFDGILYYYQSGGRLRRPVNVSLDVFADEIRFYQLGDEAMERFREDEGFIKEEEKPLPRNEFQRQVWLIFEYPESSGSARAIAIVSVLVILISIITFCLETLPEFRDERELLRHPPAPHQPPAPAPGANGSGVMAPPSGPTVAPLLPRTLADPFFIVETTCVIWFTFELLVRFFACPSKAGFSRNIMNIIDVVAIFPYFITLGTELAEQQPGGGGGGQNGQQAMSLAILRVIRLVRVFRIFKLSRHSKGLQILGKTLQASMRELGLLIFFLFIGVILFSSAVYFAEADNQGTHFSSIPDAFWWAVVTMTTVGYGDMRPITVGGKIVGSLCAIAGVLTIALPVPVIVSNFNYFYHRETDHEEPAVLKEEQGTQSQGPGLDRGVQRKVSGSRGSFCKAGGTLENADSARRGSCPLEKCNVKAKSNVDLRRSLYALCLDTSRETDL

SMILES	inhibition at 10 µM [%]	% inhibition at 10 μM [%]
Cc1cccc2sc(N3CCC(COc4ccccc4NS(=O)(=O)c4ccccn4)C3)nc12 (stereo not shown) [Example 31, N-(2-((1-(4-methylbenzo[d]thiazol-2-yl)pyrrolidin-3-yl)methoxy)phenyl)pyridine-2-sulfonamide]	56	
O=C(c1ccccc1NS(=O)(=O)c1cccc2cccnc12)N1CCN(c2nc3ccc(Br)cc3s2)CC1 [Example 16, N-(2-(4-(6-bromobenzo[d]thiazol-2-yl)piperazine-1-carbonyl)phenyl)-quinoline-8-sulfonamide]	68	
CC(C)(C)c1ccc2oc(N3CCC(Oc4ccccc4NS(=O)(=O)c4ccccn4)CC3)nc2c1 [Example 23, N-(2-(1-(5-tert-butylbenzo[d]oxazol-2-yl)piperidin-4-yloxy)phenyl)pyridine-2-sulfonamide]	51.8	
O=S(=O)(Nc1ccccc1OCC1CCN(c2nc3ccccc3s2)C1)c1ccccn1 (stereo not shown) [Example 28, N-(2-((1-(benzo[d]thiazol-2-yl)pyrrolidin-3-yl)methoxy)phenyl)-pyridine-2-sulfonamide]	76	
COc1cccc2sc(N3CCC(COc4ccccc4NS(=O)(=O)c4ccccn4)C3)nc12 (stereo not shown) [Example 32, N-(2-((1-(4-methoxybenzo[d]thiazol-2-yl)pyrrolidin-3-yl)methoxy)-phenyl)pyridine-2-sulfonamide]	53.7	
O=S(=O)(Nc1ccccc1OCC1CCN(c2nc3ccc(Cl)cc3s2)C1)c1ccccn1 (stereo not shown) [Example 30, N-(2-((1-(6-chlorobenzo[d]thiazol-2-yl)pyrrolidin-3-yl)methoxy)phenyl)pyridine-2-sulfonamide]	54.1	
O=C(c1ccccc1NS(=O)(=O)c1cccc2cccnc12)N1CCN(c2nc3ccc(OC(F)(F)F)cc3s2)CC1 [Example 19, N-(2-(4-(6-(trifluoromethoxy)benzo[d]thiazol-2-yl)piperazine-1-carbonyl)phenyl)quinoline-8-sulfonamide]	50.2	
O=S(=O)(Nc1ccccc1OC1CCN(c2nc3ccc(Cl)cc3s2)CC1)c1ccccn1 [Example 26]	65.8	
O=S(=O)(Nc1ccccc1OC1CCN(c2nc3cc(Cl)ccc3o2)CC1)c1ccccn1 [Example 24, N-(2-(1-(5-chlorobenzo[d]oxazol-2-yl)piperidin-4-yloxy)phenyl)-pyridine-2-sulfonamide]	81	
Cc1cccc(S(=O)(=O)Nc2ccccc2C(=O)N2CCN(c3nc4ccc(Br)cc4s3)CC2)n1 [Example 9, N-(2-(4-(6-bromobenzo[d]thiazol-2-yl)piperazine-1-carbonyl)phenyl)-6-methylpyridine-2-sulfonamide dihydrochloride]	62.8	
O=C(c1ccccc1NS(=O)(=O)c1ccccn1)N1CCN(c2nc3ccc(Cl)cc3s2)CC1 [Example 4, N-(2-(4-(6-chlorobenzo[d]thiazol-2-yl)piperazine-1-carbonyl)phenyl)pyridine-2-sulfonamide hydrochloride]	100	
Cc1cccc(S(=O)(=O)Nc2cccc(C(=O)N3CCN(c4nc5ccc(Cl)cc5s4)CC3)c2)n1 [Example 12, N-(3-(4-(6-chlorobenzo[d]thiazol-2-yl)piperazine-1-carbonyl)-phenyl)-6-methylpyridine-2-sulfonamide]	52.6	
O=C(c1ccccc1NS(=O)(=O)c1ccc(C(F)(F)F)cn1)N1CCN(c2nc3ccc(Cl)cc3s2)CC1 [Example 8, N-(2-(4-(6-chlorobenzo[d]thiazol-2-yl)piperazine-1-carbonyl)phenyl)-5-(trifluoromethyl)pyridine-2-sulfonamide]	94.7	
O=C(c1ccccc1NS(=O)(=O)c1cccc2cccnc12)N1CCN(c2nc3ccc(Cl)cc3s2)CC1 [Example 18, N-(2-(4-(6-chlorobenzo[d]thiazol-2-yl)piperazine-1-carbonyl)-phenyl)quinoline-8-sulfonamide]	91.5	
O=S(=O)(Nc1ccccc1OC1CCN(c2nc3ccc(Br)cc3s2)CC1)c1ccccn1 [Example 27, N-(2-(1-(6-bromobenzo[d]thiazol-2-yl)piperidin-4-yloxy)phenyl)-pyridine-2-sulfonamide]	100	
Cc1cccc2sc(N3CCCN(C(=O)c4ccccc4NS(=O)(=O)c4cccc5cccnc45)CC3)nc12 [Example 20, N-(2-(4-(4-methylbenzo[d]thiazol-2-yl)-1,4-diazepane-1-carbonyl)-phenyl)quinoline-8-sulfonamide]	82.8	
O=S(=O)(Nc1ccccc1OCC1CCN(c2nc3ccc(F)cc3s2)C1)c1ccccn1 (stereo not shown) [Example 29, N-(2-((1-(6-fluorobenzo[d]thiazol-2-yl)pyrrolidin-3-yl)methoxy)phenyl)pyridine-2-sulfonamide]	64.5	
O=S(=O)(Nc1ccccc1OC1CCN(c2nc3ccccc3s2)CC1)c1ccccn1 [Example 25, N-(2-(1-(benzo[d]thiazol-2-yl)piperidin-4-yloxy)phenyl)pyridine-2-sulfonamide]	90.2	
Cc1cccc2sc(N3CCN(C(=O)c4ccccc4NS(=O)(=O)c4ccccn4)CC3)nc12 [Example 5, N-(2-(4-(4-methylbenzo[d]thiazol-2-yl)piperazine-1-carbonyl)phenyl)-pyridine-2-sulfonamide]	90	

Other lines, results leading:

inhibition at 10 µM [%]	% inhibition at 10 μM [%]	SMILES
100		O=C(c1ccccc1NS(=O)(=O)c1ccccn1)N1CCN(c2nc3ccc(F)cc3s2)CC1 [Example 2, N-(2-(4-(6-fluorobenzo[d]thiazol-2-yl)piperazine-1-carbonyl)phenyl)-pyridine-2-sulfonamide]
91.8		O=C(c1ccccc1NS(=O)(=O)c1ccccn1)N1CCN(c2nc3cccc(Cl)c3s2)CC1 [Example 6, N-(2-(4-(7-chlorobenzo[d]thiazol-2-yl)piperazine-1-carbonyl)phenyl)-pyridine-2-sulfonamide]
100		O=C(c1ccc(NS(=O)(=O)c2ccccn2)cc1)N1CCN(c2nc3ccc(F)cc3o2)CC1 [Example 13, N-(4-(4-(6-fluorobenzo[d]oxazol-2-yl)piperazine-1-carbonyl)phenyl)pyridine-2-sulfonamide]
58.8		O=S(=O)(Nc1ccccc1OC1CCN(c2nc3ccc(Cl)cc3o2)CC1)c1ccccn1 [Example 22, N-(2-(1-(6-chlorobenzo[d]oxazol-2-yl)piperidin-4-yloxy)phenyl)-pyridine-2-sulfonamide]
54.6		Cc1ccc2nc(N3CCC(Oc4ccccc4NS(=O)(=O)c4ccccn4)CC3)oc2c1 [Example 21, N-(2-(1-(6-methylbenzo[d]oxazol-2-yl)piperidin-4-yloxy)phenyl)pyridine-2-sulfonamide]
75.1		O=C(c1cccc(NS(=O)(=O)c2ccccn2)c1)N1CCN(c2nc3ccc(Cl)cc3s2)CC1 [Example 11, N-(3-(4-(6-chlorobenzo[d]thiazol-2-yl)piperazine-1-carbonyl)phenyl)-pyridine-2-sulfonamide]
61.4		O=C(c1ccccc1NS(=O)(=O)c1ccc(C(F)(F)F)cn1)N1CCN(c2nc3ccc(F)cc3o2)CC1 [Example 1, N-(2-(4-(6-fluorobenzo[d]oxazol-2-yl)piperazine-1-carbonyl)phenyl)-5-(trifluoromethyl)pyridine-2-sulfonamide]
70.2		O=C(c1ccc(NS(=O)(=O)c2ccccn2)cc1)N1CCN(c2nc3ccc(Cl)cc3s2)CC1 [Example 15, N-(4-(4-(6-chlorobenzo[d]thiazol-2-yl)piperazine-1-carbonyl)-phenyl)pyridine-2-sulfonamide]
94.9		O=C(c1ccccc1NS(=O)(=O)c1ccccn1)N1CCN(c2nc3cc(C(F)(F)F)ccc3s2)CC1 [Example 7, N-(2-(4-(5-(trifluoromethyl)benzo[d]thiazol-2-yl)piperazine-1-carbonyl)phenyl)pyridine-2-sulfonamide]
	100	O=C(c1ccccc1NS(=O)(=O)c1ccccn1)N1CCN(c2nc3ccc(Br)cc3s2)CC1 [Example 3, N-(2-(4-(6-bromobenzo[d]thiazol-2-yl)piperazine-1-carbonyl)phenyl)-pyridine-2-sulfonamide]
70.8		O=C(c1ccccc1NS(=O)(=O)c1cccc2cccnc12)N1CCN(c2nc3ccc(Cl)cc3o2)CC1 [Example 17, N-(2-(4-(6-chlorobenzo[d]oxazol-2-yl)piperazine-1-carbonyl)-phenyl)quinoline-8-sulfonamide]
58.9		O=C(c1cccc(NS(=O)(=O)c2ccccn2)c1)N1CCN(c2nc3ccc(Cl)cc3o2)CC1 [Example 10, N-(3-(4-(6-chlorobenzo[d]oxazol-2-yl)piperazine-1-carbonyl)-phenyl)pyridine-2-sulfonamide]
68.7		O=C(c1ccc(NS(=O)(=O)c2ccccn2)cc1)N1CCN(c2nc3ccc(Cl)cc3o2)CC1 [Example 14, N-(4-(4-(6-chlorobenzo[d]oxazol-2-yl)piperazine-1-carbonyl)phenyl)pyridine-2-sulfonamide]

Test system: not given
Experiment: not given
Details: not given

melting point [°C]	SMILES
102	O=C(c1ccccc1NS(=O)(=O)c1ccccn1)N1CCN(c2nc3ccc(Br)cc3s2)CC1 [Example 3, N-(2-(4-(6-bromobenzo[d]thiazol-2-yl)piperazine-1-carbonyl)phenyl)-pyridine-2-sulfonamide]
180	Cc1cccc(S(=O)(=O)Nc2ccccc2C(=O)N2CCN(c3nc4ccc(Br)cc4s3)CC2)n1 (as salt: hydrochloride) [Example 9, N-(2-(4-(6-bromobenzo[d]thiazol-2-yl)piperazine-1-carbonyl)phenyl)-6-methylpyridine-2-sulfonamide dihydrochloride]
